Assay results taken from patent publication US8039514B2, “Sulfonamide compounds and use thereof” (Asahi Kasei Pharma Corporation, priority 2008, dated 2011).

target: T1, human calcium-sensing receptor (CaSR) (Homo sapiens, UniProt P41180); test: intracellular Ca assay, CaSR antagonist activity in HEK293/hCaSR cells; format: cell-based; conditions: Fura2-AM, inhibition of response to calcium chloride ligand solution, read-out: IC50 values according to the intracellular Ca assay (CaSR antagonist activity)
T1 construct: expressed in transfected cells
T1 sequence (P41180 20-1078): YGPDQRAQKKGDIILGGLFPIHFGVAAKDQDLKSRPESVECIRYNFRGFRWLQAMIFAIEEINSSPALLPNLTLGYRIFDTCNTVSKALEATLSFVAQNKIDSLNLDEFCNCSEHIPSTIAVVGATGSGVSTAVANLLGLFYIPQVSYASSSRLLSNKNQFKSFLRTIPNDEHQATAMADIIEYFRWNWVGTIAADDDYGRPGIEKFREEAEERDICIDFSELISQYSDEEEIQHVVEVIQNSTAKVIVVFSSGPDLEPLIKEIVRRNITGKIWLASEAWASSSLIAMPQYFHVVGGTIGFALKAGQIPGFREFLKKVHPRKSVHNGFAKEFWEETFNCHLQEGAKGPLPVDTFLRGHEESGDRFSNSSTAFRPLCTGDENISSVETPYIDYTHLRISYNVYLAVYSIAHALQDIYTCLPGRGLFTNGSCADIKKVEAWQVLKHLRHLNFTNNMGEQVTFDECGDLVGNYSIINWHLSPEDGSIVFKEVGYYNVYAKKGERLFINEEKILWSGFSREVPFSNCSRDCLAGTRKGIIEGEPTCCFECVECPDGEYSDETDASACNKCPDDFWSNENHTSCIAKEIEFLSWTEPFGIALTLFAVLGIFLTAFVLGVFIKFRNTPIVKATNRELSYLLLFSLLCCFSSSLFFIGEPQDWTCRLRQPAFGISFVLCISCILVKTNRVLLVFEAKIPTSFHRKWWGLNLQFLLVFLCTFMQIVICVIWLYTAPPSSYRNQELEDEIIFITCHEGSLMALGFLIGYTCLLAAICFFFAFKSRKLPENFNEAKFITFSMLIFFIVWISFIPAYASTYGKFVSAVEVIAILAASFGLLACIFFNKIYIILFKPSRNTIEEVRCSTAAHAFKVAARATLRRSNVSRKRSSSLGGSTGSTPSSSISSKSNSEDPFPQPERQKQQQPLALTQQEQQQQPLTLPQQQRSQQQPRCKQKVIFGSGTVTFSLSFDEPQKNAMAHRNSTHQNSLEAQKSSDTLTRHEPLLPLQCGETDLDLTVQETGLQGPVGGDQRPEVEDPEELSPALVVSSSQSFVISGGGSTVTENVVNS
In short: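 HEK293/hCaSR cells were loaded with Fura2-AM and pre-incubated with compound for 160 s at 37° C in HEPES buffer (pH 7.4, 0.8 mM CaCl2), then challenged with calcium ligand solution. Read-out was the peak 340/380 nm fluorescence ratio; inhibition is relative to no-compound (0%) and no-calcium-ligand (100%) controls.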

Row | SMILES | IC50
1 | Cc1ccc(CC(C)(C)NC[C@@H](O)CN(C)S(=O)(=O)c2cccc(-c3ccc(C(=O)O)cc3F)c2)cc1F [Exp. 3-67, (R)-2-fluoro-3′-(N-(3-(1-(3-fluoro-4-methylphenyl)-2-methylpropan-2-ylamino)-2-hydroxypropyl)-N-methylsulfamoyl)biphenyl-4-carboxylic acid] | 300 to 1000 nM
2 | Cc1ccc(CC(C)(C)NC[C@@H](O)CN(C)S(=O)(=O)c2cccc(-c3cc(F)cc(C(=O)O)c3)c2)cc1F [Exp. 3-71, (R)-5-fluoro-3′-(N-(3-(1-(3-fluoro-4-methylphenyl)-2-methylpropan-2-ylamino)-2-hydroxypropyl)-N-methylsulfamoyl)biphenyl-3-carboxylic acid] | 1000 to 3000 nM
3 | CN(C[C@H](O)CNC(C)(C)Cc1ccc(Cl)c(F)c1)S(=O)(=O)c1cccc(-c2ccc(C(=O)O)cc2F)c1 [Exp. 3-76, (R)-3′-(N-(3-(1-(4-chloro-3-fluorophenyl)-2-methylpropan-2-ylamino)-2-hydroxypropyl)-N-methylsulfamoyl)-2-fluorobiphenyl-4-carboxylic acid] | 1000 to 3000 nM
4 | CN(C[C@H](O)CNC(C)(C)Cc1ccc(Cl)c(F)c1)S(=O)(=O)c1cccc(-c2ccc(CCC(=O)O)cc2)c1 [Exp. 3-78, (R)-3-(3′-(N-(3-(1-(4-chloro-3-fluorophenyl)-2-methylpropan-2-ylamino)-2-hydroxypropyl)-N-methylsulfamoyl)biphenyl-4-yl)propionic acid] | 1000 to 3000 nM
5 | Cc1cc(-c2ccccc2CS(=O)(=O)N(C)C[C@H](O)CNC(C)(C)Cc2ccc3ccccc3c2)ccc1C(=O)O [Exp. 3-81, (R)-2′-((N-(2-hydroxy-3-(2-methyl-1-(naphthalen-2-yl)propan-2-ylamino)propyl)-N-methylsulfamoyl)methyl)-3-methylbiphenyl-4-carboxylic acid] | 300 to 1000 nM
6 | CN(C[C@H](O)CNC(C)(C)Cc1ccc2ccccc2c1)S(=O)(=O)Cc1ccccc1-c1cccc(C=CC(=O)O)c1 [Exp. 3-84, (R)-3-(2′-((N-(2-hydroxy-3-(2-methyl-1-(naphthalen-2-yl)propan-2-ylamino)propyl)-N-methylsulfamoyl)methyl)biphenyl-3-yl)acrylic acid] | 1000 to 3000 nM
7 | CN(C[C@H](O)CNC(C)(C)Cc1ccc2ccccc2c1)S(=O)(=O)Cc1ccccc1-c1cc(F)cc(C(=O)O)c1 [Exp. 3-85, (R)-5-fluoro-2′-((N-(2-hydroxy-3-(2-methyl-1-(naphthalen-2-yl)propan-2-ylamino)propyl)-N-methylsulfamoyl)methyl)biphenyl-3-carboxylic acid] | 1000 to 3000 nM
8 | CN(C[C@H](O)CNC(C)(C)Cc1ccc2ccccc2c1)S(=O)(=O)Cc1cccc(-c2ccc(C=CC(=O)O)cc2)c1 [Exp. 3-86, (R)-3-(3′-((N-(2-hydroxy-3-(2-methyl-1-(naphthalen-2-yl)propan-2-ylamino)propyl)-N-methylsulfamoyl)methyl)biphenyl-4-yl)acrylic acid] | 300 to 1000 nM
9 | CN(C[C@H](O)CNC(C)(C)Cc1ccc2ccccc2c1)S(=O)(=O)Cc1cccc(-c2ccc(CCC(=O)O)cc2)c1 [Exp. 3-87, (R)-3-(3′-((N-(2-hydroxy-3-(2-methyl-1-(naphthalen-2-yl)propan-2-ylamino)propyl)-N-methylsulfamoyl)methyl)biphenyl-4-yl)propionic acid] | 1000 to 3000 nM
10 | CN(C[C@H](O)CNC(C)(C)Cc1ccc2ccccc2c1)S(=O)(=O)Cc1ccc(-c2ccc(CCC(=O)O)cc2)cc1 [Exp. 3-90, (R)-3-(4′-((N-(2-hydroxy-3-(2-methyl-1-(naphthalen-2-yl)propan-2-ylamino)propyl)-N-methylsulfamoyl)methyl)biphenyl-4-yl)propionic acid] | 1000 to 3000 nM
11 | CN(C[C@H](O)CNC(C)(C)Cc1ccc2ccccc2c1)S(=O)(=O)Cc1ccc(-c2cccc(C=CC(=O)O)c2)cc1 [Exp. 3-91, (R)-3-(4′-((N-(2-hydroxy-3-(2-methyl-1-(naphthalen-2-yl)propan-2-ylamino)propyl)-N-methylsulfamoyl)methyl)biphenyl-3-yl)acrylic acid] | 1000 to 3000 nM
12 | Cc1c(C(=O)O)cccc1-c1cccc(S(=O)(=O)N(C)C[C@H](O)CNC(C)(C)CC2Cc3ccccc3C2)c1 [Exp. 3-92, (R)-3′-(N-(3-(1-(2,3-dihydro-1H-inden-2-yl)-2-methylpropan-2-ylamino)-2-hydroxypropyl)-N-methylsulfamoyl)-2-methylbiphenyl-3-carboxylic acid] | ≤ 300 nM
13 | CN(C[C@H](O)CNC(C)(C)CCCc1ccccc1)S(=O)(=O)c1ccc(-c2ccc(CCC(=O)O)cc2)c(Cl)c1 [Exp. 3-114, (R)-3-(2′-chloro-4′-(N-(2-hydroxy-3-(2-methyl-5-phenylpentan-2-ylamino)propyl)-N-methylsulfamoyl)biphenyl-4-yl)propionic acid] | ≤ 300 nM
14 | CCc1cc(-c2ccc(CCC(=O)O)cc2)ccc1S(=O)(=O)N(C)C[C@H](O)CNC(C)(C)CCCc1ccccc1 [Exp. 3-116, (R)-3-(3′-ethyl-4′-(N-(2-hydroxy-3-(2-methyl-5-phenylpentan-2-ylamino)propyl)-N-methylsulfamoyl)biphenyl-4-yl)propionic acid] | ≤ 300 nM
15 | CN(C[C@H](O)CNC(C)(C)CC1Cc2ccccc2C1)S(=O)(=O)c1ccc(-c2cccc(C(=O)O)c2)cc1C(F)(F)F [Exp. 3-124, (R)-4′-(N-(3-(1-(2,3-dihydro-1H-inden-2-yl)-2-methylpropan-2-ylamino)-2-hydroxypropyl)-N-methylsulfamoyl)-3′-(trifluoromethyl)biphenyl-3-carboxylic acid] | ≤ 300 nM
16 | CN(C[C@H](O)CNC(C)(C)CC1Cc2ccccc2C1)S(=O)(=O)c1c(Cl)cc(-c2cccc(C(=O)O)c2)cc1Cl [Exp. 3-126, (R)-3′,5′-dichloro-4′-(N-(3-(1-(2,3-dihydro-1H-inden-2-yl)-2-methylpropan-2-ylamino)-2-hydroxypropyl)-N-methylsulfamoyl)biphenyl-3-carboxylic acid] | ≤ 300 nM
17 | CN(C[C@H](O)CNC(C)(C)CC1Cc2ccccc2C1)S(=O)(=O)c1cc(-c2cc(F)cc(C(=O)O)c2)cc(C(F)(F)F)c1 [Exp. 3-128, (R)-3′-(N-(3-(1-(2,3-dihydro-1H-inden-2-yl)-2-methylpropan-2-ylamino)-2-hydroxypropyl)-N-methylsulfamoyl)-5-fluoro-5′-(trifluoromethyl)biphenyl-3-carboxylic acid] | ≤ 300 nM
18 | CN(C[C@H](O)CNC(C)(C)CC1Cc2ccccc2C1)S(=O)(=O)c1cccc(-c2ccc(C(=O)O)s2)c1 [Exp. 3-130, (R)-5-(3-(N-(3-(1-(2,3-dihydro-1H-inden-2-yl)-2-methylpropan-2-ylamino)-2-hydroxypropyl)-N-methylsulfamoyl)phenyl)thiophen-2-carboxylic acid] | ≤ 300 nM
19 | CN(C[C@H](O)CNC(C)(C)CC1Cc2ccccc2C1)S(=O)(=O)c1cc(-c2ccc(CC(=O)O)cc2)cc(C(F)(F)F)c1 [Exp. 3-133, (R)-2-(3′-(N-(3-(1-(2,3-dihydro-1H-inden-2-yl)-2-methylpropan-2-ylamino)-2-hydroxypropyl)-N-methylsulfamoyl)-5′-(trifluoromethyl)biphenyl-4-yl)acetic acid] | ≤ 300 nM
20 | CN(C[C@H](O)CNC(C)(C)CC1Cc2ccccc2C1)S(=O)(=O)c1c(Cl)cc(-c2ccc(CC(=O)O)cc2)cc1Cl [Exp. 3-140, (R)-2-(3′,5′-dichloro-4′-(N-(3-(1-(2,3-dihydro-1H-inden-2-yl)-2-methylpropan-2-ylamino)-2-hydroxypropyl)-N-methylsulfamoyl)biphenyl-4-yl)acetic acid] | ≤ 300 nM
21 | CCc1cc(-c2ccc(CC(=O)O)cc2)ccc1S(=O)(=O)N(C)C[C@H](O)CNC(C)(C)CC1Cc2ccccc2C1 [Exp. 3-147, (R)-2-(4′-(N-(3-(1-(2,3-dihydro-1H-inden-2-yl)-2-methylpropan-2-ylamino)-2-hydroxypropyl)-N-methylsulfamoyl)-3′-ethylbiphenyl-4-yl)acetic acid] | ≤ 300 nM
22 | CN(C[C@H](O)CNC(C)(C)CC1Cc2ccccc2C1)S(=O)(=O)c1cc(-c2cccc(CC(=O)O)c2)cc(C(F)(F)F)c1 [Exp. 3-154, (R)-2-(3′-(N-(3-(1-(2,3-dihydro-1H-inden-2-yl)-2-methylpropan-2-ylamino)-2-hydroxypropyl)-N-methylsulfamoyl)-5′-(trifluoromethyl)biphenyl-3-yl)acetic acid] | ≤ 300 nM
